{"source": "patent US20130237557A1", "about": "“TREATMENT” (UCL BUSINESS PLC, priority 2010, published 2013)", "key": {"[1]": {"tested_on": "Nuclear Factor κ B (NFκB)", "assay": "NFκB protein expression in liver tissue of BDL rats by western blotting", "type": "in vivo, rat", "conditions": "vs untreated BDL", "description": "(§1) These experiments utilised an established animal model of cirrhosis, the bile duct ligated (BDL) rat. BDL rats may be generated by methods known in the art. For example, male Sprague-Dawley rats (200-250 g) may be used for this procedure. Following anaesthetisation, a mid-line laparotamy may be performed, the bile duct exposed, triply ligated with 4.0 silk suture, and severed between the second and third ligature. The wound is then closed in layers with absorbable suture, and the animal allowed to recover in a quiet room before being returned to the animal storage facility.\n(§2) 29 bile duct ligated rats and 17 sham operated rats were studied at the end of four weeks. The animals were randomised to receive a placebo (saline) or an alpha 2a antagonist (BRL 44408, Sigma, UK). The dose applied was 10 mgs/Kg by sub cutaneous injection: two doses were delivered 24 hours prior to study.\n(§3) Plasma biochemistry was measured by colorimetry using a Cobas Integra. Alpha 2a adrenergic receptor (ADRA 2a) and Nuclear Factor κ B (NFκB) protein expression were assessed by western blotting. ADRA2a expression was determined by immunohistochemistry.\nThe protein expression was assessed by the western blotting technique. NFkB is an important regulator of cell signalling pathways including apoptosis and inflammation."}, "sham operated rat [2]": {"tested_on": "sham operated rat", "assay": "Plasma biochemistry in sham operated rats (colorimetry, Cobas Integra)", "type": "in vivo", "conditions": "sham rats treated vs sham operated rats", "protocol": "as §2, §3\n(§4) Data are shown as median (range) or mean±standard error (SEM). Two tailed unpaired t-test was used to define difference between the means of normally distributed data of equal variance. For data that was not equally distributed, a Mann-Whitney test was used. Comparison of multiple groups was by analysis of variance (ANOVA) with a Bonferroni correction for multiple comparison."}, "[3]": {"tested_on": "bile duct ligated (BDL) rat", "assay": "Brain water content in BDL rats", "type": "in vivo", "conditions": "vs untreated BDL", "description": "as §1, §2\nThe brain water content signifies the amount of brain swelling that occurs as a result of inflammation in the brain."}, "sham operated rat [4]": {"tested_on": "sham operated rat", "assay": "Haemodynamics in sham operated rats treated with alpha 2a antagonist", "type": "in vivo", "protocol": "as §2\n(§5) Mean arterial pressure was measured via a transducer through the left carotid artery. Portal pressure readings were taken by direct puncture of portal vein and transducer. Portal vein and hepatic artery flow measurements were done with a transonic flow probe and meter. All measurements were done in triplicates and recorded in data collection sheets.\nas §4"}, "[5]": {"tested_on": "bile duct ligated (BDL) rat", "assay": "Haemodynamics in bile duct ligated (BDL) rats treated with alpha 2a antagonist", "type": "in vivo", "conditions": "for mean arterial pressure (MAP): two doses 24 hours prior to study, vs placebo/untreated BDL; for hepatic arterial blood flow: vs BDL treated with saline, Transonic flow probe", "description": "as §1, §2, §5, §4"}, "[6]": {"tested_on": "bile duct ligated (BDL) rat", "assay": "Plasma biochemistry in BDL rats (colorimetry, Cobas Integra)", "type": "in vivo", "description": "as §1, §2, §3, §4"}}, "note": "“Also recorded” adds a separate entry of the source.", "data": [{"smiles": "CC1c2ccccc2CN1CC1=NCCN1", "note": "(centres unmarked) [BRL 44408, 2-[(4,5-Dihydro-1H-imidazol-2-yl)methyl]-2,3-dihydro-1-methyl-1H-isoindole]", "values": [{"measurement": "NFkB protein expression in the liver tissue", "setting": "[1]", "value": "reduced"}, {"measurement": "plasma creatinine", "setting": "sham operated rat [2]", "value": "no difference"}, {"measurement": "brain water content", "setting": "[3]", "value": "significantly decreased; also recorded: reduced"}, {"measurement": "mean arterial pressure (MAP)", "setting": "sham operated rat [4]; sham operated rats, 10 mgs/Kg sub cutaneous, treated vs untreated sham", "value": "no difference"}, {"measurement": "hepatic arterial blood flow", "setting": "sham operated rat [4]; sham operated rats, vs sham treated with saline", "value": "improvement"}, {"measurement": "portal pressure", "setting": "sham operated rat [4]; sham rats treated vs saline", "value": "no difference"}, {"measurement": "intra hepatic resistance", "setting": "sham operated rat [4]; sham rats treated vs sham rats", "value": "no difference"}, {"measurement": "mean arterial pressure (MAP)", "setting": "[5]; BDL rats, 10 mgs/Kg sub cutaneous", "value": "significantly improved; also recorded: increased"}, {"measurement": "mean arterial pressure (MAP)", "setting": "[5]; BDL rats, 10 mgs/Kg sub cutaneous, listed as ADRA2a antagonist", "value": "significant increase"}, {"measurement": "portal pressure", "setting": "[5]; BDL rats, 10 mgs/Kg sub cutaneous, two doses, treated group value (placebo 18.0±3.7), p<0.001", "value": "11.4±3.4", "unit": "mmHg"}, {"measurement": "cardiac output", "setting": "[5]; BDL rats, heart rate x stroke volume from echocardiogram, vs untreated BDL", "value": "improved significantly"}, {"measurement": "intra hepatic resistance", "setting": "[5]; BDL rats, post treatment value (untreated 1.1±0.2), p<0.05, portal pressure divided by hepatic blood flow", "value": "0.5±0.1", "unit": "mmHg/ml/min"}, {"measurement": "portal pressure", "setting": "[5]; BDL rats, vs BDL rats treated with saline, change in words", "value": "significantly reduced; also recorded: lowered"}, {"measurement": "hepatic arterial blood flow", "setting": "[5]; BDL rats", "value": "markedly increased"}, {"measurement": "hepatic arterial blood flow", "setting": "[5]; BDL rats, listed as BRL44408", "value": "improved"}, {"measurement": "intra hepatic resistance", "setting": "[5]; BDL rats, vs untreated BDL, change in words", "value": "significantly reduced; also recorded: lowered"}, {"measurement": "portal venous blood flow", "setting": "[5]; treated group vs placebo", "value": "without significant change"}, {"measurement": "liver specific alanine aminotransferase (ALT)", "setting": "[6]; p=0.5", "value": "non significant increase"}, {"measurement": "plasma ammonia", "setting": "[6]; vs untreated BDL", "value": "trend towards reduction; also recorded: reduced"}, {"measurement": "plasma aspartate aminotransaminase (AST)", "setting": "[6]; vs untreated BDL", "value": "significant reduction; also recorded: reduced"}, {"measurement": "plasma lactate", "setting": "[6]; vs untreated BDL", "value": "significant reduction"}, {"measurement": "plasma lactate", "setting": "[6]; vs untreated BDL, listed as BRL", "value": "significantly reduced"}, {"measurement": "plasma creatinine", "setting": "[6]; vs untreated BDL, marker for renal function", "value": "trend towards reduction; also recorded: improved; also recorded: reduced"}]}]}
